Numbered stars: 1 amine (or outer) side, 2 acyl side, 3 side chain; on linkers, the order of the positions; unused ones are H or OH. Bridge positions count the residues as written; N and C are the ends. Square brackets hold non-standard residues; d marks the D form. Peptide text beside a SMILES is read from it. * marks the point of attachment. Phe(3-CH2NH2) = O=C([C@H](Cc1cccc(CN[*:3])c1)N[*:1])[*:2]; Phe(4-NHCONH2) = NC(=O)Nc1ccc(C[C@H](N)C(=O)O)cc1; Phe(2-CONH2) = NC(=O)c1ccccc1C[C@H](N)C(=O)O; X5 = O=C([C@H](Cc1ccc(CO)cc1)N[*:1])[*:2]; Triazol3yl(1,2,4-5-NH2) = Nc1nc(*)n[nH]1; Phe(4-NH2) = Nc1ccc(C[C@H](N)C(=O)O)cc1; Picolinoyl(3,5-F2) = O=C(c1ncc(F)cc1F)*; X3 = NCc1ccccc1C[C@H](N[*:1])C(=O)[*:2]; Picolinoyl(5-F) = O=C(c1ccc(F)cn1)*; Orn(iPr) = CC(C)NCCC[C@H](N)C(=O)O; Oxazole2carbonyl = O=C(c1ncco1)*; 3Pal = N[C@@H](Cc1cccnc1)C(=O)O; X4 = O=C(c1ncccc1[N+](=O)[O-])*; Picolinoyl = O=C(c1ccccn1)*; ΔPro = O=C(O)[C@@H]1C=CCN1; Orn = NCCC[C@H](N)C(=O)O; X2 = Cc1n[nH]c(C(=O)*)n1; X11 = O=C(c1ncccc1Cl)*
Assays:
[1] = target: T1, hCGRP receptor (CALCRL:RAMP1) (Homo sapiens, UniProt O60894+Q16602); experiment: CGRP receptor antagonist activity measured by cAMP assay (HTRF); type: cell-based; conditions: agonist human α-CGRP; for Emax: % MPE: percent of the maximal possible effect, read-out: hCGRP-R Efficacy Antag (%) Ave; for IC50: GeneBLAzer CALCRL:RAMP1-CRE-bla Freestyle 293F cells, 30 minutes, read-out: hCGRP-R IC50 Ave
T1 construct: host or cells: GeneBLAzer CALCRL:RAMP1-CRE-bla Freestyle 293F

[2] = target: T2, hAM2 receptor (CALCRL:RAMP3) (Homo sapiens, UniProt O60896+Q16602); experiment: AM2 receptor antagonist activity measured by cAMP assay (HTRF); type: cell-based; conditions: for Emax: % MPE: percent of the maximal possible effect, read-out: hAM2-R Efficacy Antag (%) Ave; for Emax / IC50: agonist human adrenomedullin; for IC50: GeneBLAzer CALCRL:RAMP3-CRE-bla Freestyle 293F cells, read-out: hAM2-R IC50 Ave; for selectivity ratio CGRP/AM2: selectivity ratio for hCGRP over hAM2, calculated from the IC50 values
T2 construct: expressed in transfected cells; host or cells: GeneBLAzer CALCRL:RAMP3-CRE-bla Freestyle 293F
T2 sequence (Q16602 23-461): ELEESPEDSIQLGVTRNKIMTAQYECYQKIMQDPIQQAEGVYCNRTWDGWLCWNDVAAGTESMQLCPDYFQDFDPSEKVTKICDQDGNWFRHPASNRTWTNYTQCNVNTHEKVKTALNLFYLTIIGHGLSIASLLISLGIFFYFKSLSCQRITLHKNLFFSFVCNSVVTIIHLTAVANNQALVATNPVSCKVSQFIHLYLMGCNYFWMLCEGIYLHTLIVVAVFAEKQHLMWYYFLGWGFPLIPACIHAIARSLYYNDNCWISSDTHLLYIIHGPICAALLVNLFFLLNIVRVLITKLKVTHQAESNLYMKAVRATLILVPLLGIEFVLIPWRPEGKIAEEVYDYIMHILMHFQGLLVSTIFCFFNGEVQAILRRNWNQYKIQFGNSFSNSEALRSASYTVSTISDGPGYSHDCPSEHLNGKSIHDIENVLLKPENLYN
T2 sequence (O60896 24-148): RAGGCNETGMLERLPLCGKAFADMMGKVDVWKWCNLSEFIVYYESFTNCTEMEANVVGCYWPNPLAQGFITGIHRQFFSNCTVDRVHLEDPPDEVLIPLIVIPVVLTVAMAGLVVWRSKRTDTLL

T1 sequence (Q16602 23-461): as the sequence (Q16602 23-461) above
T1 sequence (O60894 27-148): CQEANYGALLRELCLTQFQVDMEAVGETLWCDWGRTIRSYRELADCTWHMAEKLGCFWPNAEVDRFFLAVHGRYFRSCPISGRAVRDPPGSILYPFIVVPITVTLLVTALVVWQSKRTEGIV

Emax [1]	IC50 [1]	Emax [2]	IC50 [2]	selectivity ratio CGRP/AM2 [2]	SMILES
100%	0.18 nM	99%	8.1 nM	46	CC(C)[C@@H]1NC(=O)[C@H](CC(=O)O)NC(=O)[C@H](CCCNC(=N)N)NC(=O)[C@@H](NC(=O)[C@H](Cc2ccc(O)cc2)NC(=O)[C@H](NC(=O)c2ncccc2[N+](=O)[O-])C(C)C)CSSC[C@@H](C(=O)N[C@@H](Cc2cccnc2)C(N)=O)NC(=O)[C@H](Cc2ccccc2)NC(=O)[C@@H]2CCCN2C(=O)CNC1=O [Compound 50] (X4-[dV]YCRDVGPFC[3Pal]-NH2; disulfide 3-10)
100%	0.14 nM	100%	13 nM	92	CC(C)[C@@H]1NC(=O)[C@H](CC(=O)O)NC(=O)[C@H](CCCNC(=N)N)NC(=O)[C@@H](NC(=O)[C@H](Cc2ccc(O)cc2)NC(=O)[C@H](NC(=O)c2ncccc2Cl)C(C)C)CSSC[C@@H](C(=O)N[C@@H](Cc2cccnc2)C(N)=O)NC(=O)[C@H](Cc2ccccc2)NC(=O)[C@@H]2CCCN2C(=O)CNC1=O [Compound 51] (X11-[dV]YCRDVGPFC[3Pal]-NH2; disulfide 3-10)
100%	–	97%	–	–	CC(C)[C@@H]1NC(=O)[C@H](CC(=O)O)NC(=O)[C@H](CCCNc2nc(N)n[nH]2)NC(=O)[C@@H](NC(=O)[C@H](Cc2ccccc2C(N)=O)NC(=O)[C@H](NC(=O)c2ncco2)C(C)C)CSSC[C@@H](C(=O)N[C@@H](Cc2cccnc2)C(N)=O)NC(=O)[C@H](Cc2cccnc2)NC(=O)[C@@H]2CCCN2C(=O)CNC1=O [Compound 52, Oxazole-2-carbonyl-D-Val-Phe(2-Cbm)-c(Cys-Orn(Atz)-Asp-Val-Gly-Pro-3Pal-Cys)-3Pal-NH2] (Oxazole2carbonyl-[dV][Phe(2-CONH2)]C[Orn](Triazol3yl(1,2,4-5-NH2))DVGP[3Pal]C[3Pal]-NH2; disulfide 3-10)
100%	0.11 nM	98%	901 nM	8130	Cc1n[nH]c(C(=O)N[C@@H](C(=O)N[C@@H](Cc2ccc(O)cc2)C(=O)N[C@H]2CSSC[C@@H](C(=O)N[C@@H](Cc3cccnc3)C(N)=O)NC(=O)[C@H](Cc3ccccc3CN)NC(=O)[C@@H]3CCCN3C(=O)CNC(=O)[C@H](C(C)C)NC(=O)[C@H](CC(=O)O)NC(=O)[C@H](CCCNC(=N)N)NC2=O)C(C)C)n1 [Compound 53, 1H-1,2,4-triazole-5-carbonyl(3-Me)-D-Val-Tyr-c(Cys-Arg-Asp-Val-Gly-Pro-Phe(2-CH2NH2)-Cys)-3Pal-NH2] (X2-[dV]YCRDVGP[X3]C[3Pal]-NH2; disulfide 3-10)
100%	0.17 nM	99%	150 nM	898	CC(C)NCCC[C@@H]1NC(=O)[C@@H](NC(=O)[C@H](Cc2ccccc2C(N)=O)NC(=O)[C@H](NC(=O)c2ccccn2)C(C)C)CSSC[C@@H](C(=O)N[C@@H](Cc2cccnc2)C(N)=O)NC(=O)[C@H](Cc2cccc(CN)c2)NC(=O)[C@@H]2C=CCN2C(=O)CNC(=O)[C@H](C(C)C)NC(=O)[C@H](CC(=O)O)NC1=O [Compound 54, Picolinoyl-D-Val-Phe(2-Cbm)-c(Cys-Orn(iPr)-Asp-Val-Gly-Dhp-Phe(3-CH2NH2)-Cys)-3Pal-NH2] (Picolinoyl-[dV][Phe(2-CONH2)]C[Orn(iPr)]DVG[ΔPro][Phe(3-CH2NH2)]C[3Pal]-NH2; disulfide 3-10)
100%	0.18 nM	100%	137 nM	746	CC(C)NCCC[C@@H]1NC(=O)[C@@H](NC(=O)[C@H](Cc2ccc(O)cc2)NC(=O)[C@H](NC(=O)c2ccccn2)C(C)C)CSSC[C@@H](C(=O)N[C@@H](Cc2cccnc2)C(N)=O)NC(=O)[C@H](Cc2ccc(CO)cc2)NC(=O)[C@@H]2CCCN2C(=O)CNC(=O)[C@H](C(C)C)NC(=O)[C@H](CC(=O)O)NC1=O [Compound 55, Picolinoyl-D-Val-Tyr-c(Cys-Orn(iPr)-Asp-Val-Gly-Pro-Phe(4-CH2OH)-Cys)-3Pal-NH2] (Picolinoyl-[dV]YC[Orn(iPr)]DVGP[X5]C[3Pal]-NH2; disulfide 3-10)
100%	0.17 nM	100%	55 nM	328	CC(C)[C@@H]1NC(=O)[C@H](CC(=O)O)NC(=O)[C@H](CCCN)NC(=O)[C@@H](NC(=O)[C@H](Cc2ccc(O)cc2)NC(=O)[C@H](NC(=O)c2ccc(F)cn2)C(C)C)CSSC[C@@H](C(=O)N[C@@H](Cc2cccnc2)C(N)=O)NC(=O)[C@H](Cc2ccc(CO)cc2)NC(=O)[C@@H]2CCCN2C(=O)CNC1=O [Compound 56, Picolinoyl(5-F)-D-Val-Tyr-c(Cys-Orn-Asp-Val-Gly-Pro-Phe(4-CH2OH)-Cys)-3Pal-NH2] ({Picolinoyl(5-F)}-[dV]YC[Orn]DVGP[X5]C[3Pal]-NH2; disulfide 3-10)
100%	0.12 nM	99%	624 nM	5225	CC(C)NCCC[C@@H]1NC(=O)[C@@H](NC(=O)[C@H](Cc2ccccc2C(N)=O)NC(=O)[C@H](NC(=O)c2ncco2)C(C)C)CSSC[C@@H](C(=O)N[C@@H](Cc2cccnc2)C(N)=O)NC(=O)[C@H](Cc2ccc(O)cc2)NC(=O)[C@@H]2C=CCN2C(=O)CNC(=O)[C@H](C(C)C)NC(=O)[C@H](CC(=O)O)NC1=O [Compound 57, Oxazole-2-carbonyl-D-Val-Phe(2-Cbm)-c(Cys-Orn(iPr)-Asp-Val-Gly-Dhp-Tyr-Cys)-3Pal-NH2] (Oxazole2carbonyl-[dV][Phe(2-CONH2)]C[Orn(iPr)]DVG[ΔPro]YC[3Pal]-NH2; disulfide 3-10)
100%	0.18 nM	99%	476 nM	2588	CC(C)NCCC[C@@H]1NC(=O)[C@@H](NC(=O)[C@H](Cc2ccccc2C(N)=O)NC(=O)[C@H](NC(=O)c2ncco2)C(C)C)CSSC[C@@H](C(=O)N[C@@H](Cc2cccnc2)C(N)=O)NC(=O)[C@H](Cc2cccnc2)NC(=O)[C@@H]2C=CCN2C(=O)CNC(=O)[C@H](C(C)C)NC(=O)[C@H](CC(=O)O)NC1=O [Compound 58, Oxazole-2-carbonyl-D-Val-Phe(2-Cbm)-c(Cys-Orn(iPr)-Asp-Val-Gly-Dhp-3Pal-Cys)-3Pal-NH2] (Oxazole2carbonyl-[dV][Phe(2-CONH2)]C[Orn(iPr)]DVG[ΔPro][3Pal]C[3Pal]-NH2; disulfide 3-10)
100%	0.17 nM	99%	467 nM	2770	CC(C)NCCC[C@@H]1NC(=O)[C@@H](NC(=O)[C@H](Cc2ccccc2C(N)=O)NC(=O)[C@H](NC(=O)c2ncco2)C(C)C)CSSC[C@@H](C(=O)N[C@@H](Cc2cccnc2)C(N)=O)NC(=O)[C@H](Cc2ccc(N)cc2)NC(=O)[C@@H]2C=CCN2C(=O)CNC(=O)[C@H](C(C)C)NC(=O)[C@H](CC(=O)O)NC1=O [Compound 59, Oxazole-2-carbonyl-D-Val-Phe(2-Cbm)-c(Cys-Orn(iPr)-Asp-Val-Gly-Dhp-4Aph-Cys)-3Pal-NH2] (Oxazole2carbonyl-[dV][Phe(2-CONH2)]C[Orn(iPr)]DVG[ΔPro][Phe(4-NH2)]C[3Pal]-NH2; disulfide 3-10)
100%	0.12 nM	100%	444 nM	3759	CC(C)NCCC[C@@H]1NC(=O)[C@@H](NC(=O)[C@H](Cc2ccccc2C(N)=O)NC(=O)[C@H](NC(=O)c2ncco2)C(C)C)CSSC[C@@H](C(=O)N[C@@H](Cc2cccnc2)C(N)=O)NC(=O)[C@H](Cc2ccc(NC(N)=O)cc2)NC(=O)[C@@H]2C=CCN2C(=O)CNC(=O)[C@H](C(C)C)NC(=O)[C@H](CC(=O)O)NC1=O [Compound 60, Oxazole-2-carbonyl-D-Val-Phe(2-Cbm)-c(Cys-Orn(iPr)-Asp-Val-Gly-Dhp-4Uph-Cys)-3Pal-NH2] (Oxazole2carbonyl-[dV][Phe(2-CONH2)]C[Orn(iPr)]DVG[ΔPro][Phe(4-NHCONH2)]C[3Pal]-NH2; disulfide 3-10)
100%	0.1 nM	100%	89 nM	934	CC(C)NCCC[C@@H]1NC(=O)[C@@H](NC(=O)[C@H](Cc2ccc(O)cc2)NC(=O)[C@H](NC(=O)c2ccc(F)cn2)C(C)C)CSSC[C@@H](C(=O)N[C@@H](Cc2cccnc2)C(N)=O)NC(=O)[C@H](Cc2ccc(CO)cc2)NC(=O)[C@@H]2CCCN2C(=O)CNC(=O)[C@H](C(C)C)NC(=O)[C@H](CC(=O)O)NC1=O [Compound 61, Picolinoyl(5-F)-D-Val-Tyr-c(Cys-Orn(iPr)-Asp-Val-Gly-Pro-Phe(4-CH2OH)-Cys)-3Pal-NH2] ({Picolinoyl(5-F)}-[dV]YC[Orn(iPr)]DVGP[X5]C[3Pal]-NH2; disulfide 3-10)
100%	0.14 nM	100%	85 nM	592	CC(C)NCCC[C@@H]1NC(=O)[C@@H](NC(=O)[C@H](Cc2ccc(O)cc2)NC(=O)[C@H](NC(=O)c2ncc(F)cc2F)C(C)C)CSSC[C@@H](C(=O)N[C@@H](Cc2cccnc2)C(N)=O)NC(=O)[C@H](Cc2ccccc2)NC(=O)[C@@H]2CCCN2C(=O)CNC(=O)[C@H](C(C)C)NC(=O)[C@H](CC(=O)O)NC1=O [Compound 62, Picolinoyl(3,5-F2)-D-Val-Tyr-c(Cys-Orn(iPr)-Asp-Val-Gly-Pro-Phe-Cys)-3Pal-NH2] ({Picolinoyl(3,5-F2)}-[dV]YC[Orn(iPr)]DVGPFC[3Pal]-NH2; disulfide 3-10)

From patent publication US9969775B2, “CGRP antagonist peptides” (Ferring B.V., priority 2015, dated 2018)
